Among the data in patent publication US5374722A, “Bridged benzazepines” (Schering Corporation, priority 1993, dated 1994) are Ki and minimal effective dose values, retold here.

Assay [1] addresses T1, D-2 receptor (Rattus norvegicus, UniProt P61169).
T1 construct: Stdatal tissue is excised, pooled, and homogenized; from tissue; host or cells: striatum of male Sprague-Dawley rats (washed homogenate pellet)
Put plainly: Competitive inhibition assay: displacement of 3H-spiperone (D-2) from rat striatal tissue. In kind it is binding, rat (male Sprague-Dawley).

Assay [2] concerns the target T2, D-1 receptor (Rattus norvegicus, UniProt P18901).
T2 construct: Stdatal tissue is excised, pooled, and homogenized; from tissue; host or cells: striatum of male Sprague-Dawley rats (washed homogenate pellet)
Put plainly: Competitive inhibition assay: displacement of tritiated Compound B* (D-1) from rat striatal tissue. In kind it is binding, rat (male Sprague-Dawley).

Assay [3] relates to conditioned avoidance response (CAR) in rats. Put plainly: animal or person. The note with it: Rattus norvegicus. In kind it is in vivo.
Setting [4] is: 3H-spiperone 0.2 nM, rat striatal tissue, pH 7.4, 37° C., 15 min.
Setting [5] is: po, 1 h, read-out: Rat CAR MED Oral (minimal effective dose).
The mark [6] stands for this setting: tritiated compound B 0.3 nM, rat striatal tissue, pH 7.4, 37° C., 15 min.
Where [7] appears, read: sc, 0.5 h, read-out: Rat CAR MED sc (minimal effective dose).

The structures appear in SMILES notation. pKi: −log10 of the molar value. Counter-ions that a name gives are not always drawn. Like-named read-outs stand apart in the source and are kept apart here.

T2 sequence (P18901 whole entry): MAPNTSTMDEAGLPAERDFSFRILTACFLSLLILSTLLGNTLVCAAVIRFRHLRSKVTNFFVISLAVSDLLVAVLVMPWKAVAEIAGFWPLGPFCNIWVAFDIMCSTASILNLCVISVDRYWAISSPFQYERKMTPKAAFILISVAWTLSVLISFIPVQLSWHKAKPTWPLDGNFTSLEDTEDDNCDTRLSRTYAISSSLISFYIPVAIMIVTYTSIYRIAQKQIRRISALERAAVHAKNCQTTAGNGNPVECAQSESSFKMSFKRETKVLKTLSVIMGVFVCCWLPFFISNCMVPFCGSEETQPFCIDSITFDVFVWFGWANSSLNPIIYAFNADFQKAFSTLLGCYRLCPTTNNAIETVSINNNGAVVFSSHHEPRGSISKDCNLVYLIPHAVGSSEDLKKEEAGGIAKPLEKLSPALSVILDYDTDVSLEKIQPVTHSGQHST
T1 sequence (P61169 whole entry): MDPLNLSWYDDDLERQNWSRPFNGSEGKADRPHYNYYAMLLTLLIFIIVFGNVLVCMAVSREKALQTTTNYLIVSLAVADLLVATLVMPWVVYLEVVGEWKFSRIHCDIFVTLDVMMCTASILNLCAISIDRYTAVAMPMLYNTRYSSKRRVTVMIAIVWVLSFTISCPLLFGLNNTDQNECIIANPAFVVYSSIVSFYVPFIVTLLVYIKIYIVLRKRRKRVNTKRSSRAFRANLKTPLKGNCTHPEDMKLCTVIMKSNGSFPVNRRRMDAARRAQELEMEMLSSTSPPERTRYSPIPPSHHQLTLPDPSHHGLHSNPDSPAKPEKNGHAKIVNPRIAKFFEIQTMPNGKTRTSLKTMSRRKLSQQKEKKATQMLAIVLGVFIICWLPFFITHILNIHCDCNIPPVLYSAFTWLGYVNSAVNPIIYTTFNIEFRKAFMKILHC

By pKi is commonly meant −log10 of the Ki, conventionally taken in molar units. Usually minimal effective dose stands for the lowest level tested that produced the effect sought. For `Cc1cc2c3c(c1O)CCCC3CN(C)CC2` (stereo not shown) [CH3 H 1 H H H H H, 2,6-Dimethyl-1,2,3,4,8,9,1 0,10a-Octahydro-Naphth[1,8. cd]azepine-7-ol, hydrochloride], the pKi is 5.89 in assay [1] (setting [4]) and 7.43 in assay [2]. The minimal effective dose in assay [3] (setting [5]) is at most 30 mg/kg.
As to `CN1CCc2ccc(O)c3c2C(CCC3)C1` (stereo not shown) [CH H 1 H H H H H, 2-Methyl-1,2,3,4,8,9, 10,10a-OctahydroNaphth[1,8-cd]azepine-7-ol], the values for the negative logarithm of the Ki (pKi) in assay [1] (setting [4]) and in assay [2] (setting [6]) were 5.47 and 6.46, respectively.
For `CN1CCc2c(Cl)c(Cl)c(O)c3c2C(CCC3)C1` (stereo not shown) [Cl Cl 1 H H H H H, 5,6-Dichloro-2-Methyl-1,2,3,4,8,9, 10,10a-octahydronapth[1,8-cd]azepin-7-ol], the figures for the pKi in assay [1] (setting [4]) and in assay [2] were 6.64 and 8.96, respectively. Moreover, the minimal effective dose in assay [3] (setting [5]) amounted to 10 mg/kg.
Regarding `CN1CCc2cc(Cl)c(O)c3c2C(C1)CC3(C)C` (stereo not shown) [Cl H 0 H CH3 CH3 H H], the pKi was 6.83 in assay [1] (setting [4]) and 7.19 in assay [2]. Besides, the minimal effective dose in assay [3] (setting [7]) turned out to be 3 mg/kg.
In the case of `COc1cc(NC(=O)Oc2c(Cl)cc3c4c2CCCC4CN(C)CC3)cc(OC)c1` (stereo not shown) [Cl H 1 3,5-(MeO)2PhNHCO H H H H], the pKi in assay [1] was 6.39; in assay [2], 8.18. Moreover, the minimal effective dose in assay [3] (setting [5]) was 10 mg/kg.
The like results for `CC(C)c1ccc(NC(=O)Oc2c(Cl)cc3c4c2CCCC4CN(C)CC3)cc1` (stereo not shown) [Cl H 1 4-i-PrPhNHCO H H H H, 6-Chloro-7-[(4-Isoporpylphenylamino) Carbonyloxy]-2-Methyl-1,2,3,4,8,9,10,10a-Octahydro-Naphth]1,8-cd]azepine, hydrochloride] were, in that order, 6.17, 7.29 and at most 30 mg/kg.
Take `CN1CCc2cc(Cl)c(O)c3c2C(CCC3c2ccccc2)C1` (stereo not shown) [Cl H 1 H C6H5 H H H]: the negative-log Ki (pKi) in assay [1] (setting [4]) was 4.37; in assay [2] (setting [6]), 5.68. In addition, the minimal effective dose is above 30 mg/kg in assay [3] (setting [5]) and above 10 mg/kg in assay [3] (setting [7]).
For `CN1CCc2cc(Cl)c(O)c3c2C(CCC3(C)C)C1` (stereo not shown) [Cl H 1 H CH3 CH3 H H, 6-Chloro-2,8.8-Trimethyl-1,2,3,4,8,9,10,10a-Octahydro-Naphth [1,8-cd]azepin-7-ol] the same measures were 6.66, 6.59, below 30 mg/kg and above 10 mg/kg.
As to `CC1CCC2CN(C)CCc3cc(Cl)c(O)c1c32` (stereo not shown) [Cl H 1 H CH3 H H H, 6-chloro-2,8-dimethyl-1.2.3.4.8.9.10.10a-octahydro-naphth [1.8-c.d]azepin-7-ol], the values for the negative-log Ki (pKi) in assay [1] (setting [4]) and in assay [2] were 6.61 and 7.38, respectively. In addition, the results for the minimal effective dose in assay [3] (setting [5]) and in assay [3] (setting [7]) were 3 mg/kg and 0.1 mg/kg, respectively.
Regarding `CC1=Cc2c(O)c(Cl)cc3c2C(C1)CN(C)CC3` (stereo not shown) [Cl H 1 H H -- CH3 --], the pKi was 6.58 in assay [1] (setting [4]) and 7.49 in assay [2]. For the same molecule, the minimal effective dose in assay [3] (setting [5]) is above 30 mg/kg.
For `CC1CCC2CN(C)CCc3cc(Cl)c(O)c1c32` (stereo not shown) [Cl H 1 H H CH3 H H, 6-chloro-2,8-dimethyl-1.2.3.4.8.9.10.10a-octahydro-naphth [1.8-c.d]azepin-7-ol], the values for the negative-log Ki (pKi) in assay [1] (setting [4]) and in assay [2] were 6.41 and 7.29, respectively.
For `CC1Cc2c(O)c(Cl)cc3c2C(C1)CN(C)CC3` (stereo not shown) [Cl H 1 H H H CH3 H], the pKi was 6.60 in assay [1] (setting [4]) and 8.35 in assay [2].
As to `CN1CCc2cc(Cl)c(O)c3c2C(CCC3)C1` (stereo not shown) [Cl H 1 H H H H H, 6-Chloro-2-Methyl-1,2,3,4,8,9, 10, 10a-octahydro-naphth [1,8-cd]azepin-7-ol], the negative logarithm of the Ki (pKi) is 6.30 in assay [1] (setting [4]) and 8.21 in assay [2]. Besides, the minimal effective dose in assay [3] (setting [5]) was above 30 mg/kg; in assay [3] (setting [7]) it was 0.3 mg/kg.
`CN1CCc2cc(Cl)c(O)c3c2C(CCC3O)C1` (stereo not shown) [Cl H 1 H HO H H H]: the pKi in assay [1] (setting [4]) is 5.18; in assay [2] (setting [6]), 6.96.
With `CN1CCc2cc(Cl)c(OC(=O)N(C)C)c3c2C(CCC3)C1` (stereo not shown) [Cl H 1 Me2NCO H H H H], the pKi in assay [1] was 5.10; in assay [2] it was 6.00. The minimal effective dose was found to be 10 mg/kg in assay [3] (setting [5]) and 3 mg/kg in assay [3] (setting [7]).
Turning to `COc1cc(NC(=O)Oc2ccc3c4c2C(C)CCC4CN(C)CC3)cc(OC)c1` (stereo not shown) [H H 1 3,5-(MeO)2PhNHCO CH3 H H H], the pKi in assay [1] is 6.47; in assay [2] it was 7.46. Moreover, the minimal effective dose in assay [3] (setting [5]) is above 30 mg/kg.
The like results for `CC(C)c1ccc(NC(=O)Oc2ccc3c4c2C(C)CCC4CN(C)CC3)cc1` (stereo not shown) [H H 1 4-iPrPhNHCO CH3 H H H] were, in that order, 6.38, 6.87 and above 30 mg/kg.
